Results as given in PubChem BioAssay (NCI).
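How tested: cells in 96-well plates exposed to compound for 48 hours at five concentrations. At the GI50, growth is halved. Definition used: TGI = concentration required for complete inhibition of growth.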

Experiments:
Assay in all cases: NCI-60 cell line screen, 48 h
OVCAR-8 ovarian = tested on: OVCAR-8 ovarian
786-0 renal = tested on: 786-0 renal
EKVX NSCLC = tested on: EKVX NSCLC
A549 NSCLC = tested on: A549 NSCLC
A498 renal = tested on: A498 renal
M14 melanoma = tested on: M14 melanoma
NCI/ADR-RES ovarian = tested on: NCI/ADR-RES ovarian
MALME-3M melanoma = tested on: MALME-3M melanoma
HS 578T breast = tested on: HS 578T breast
SK-MEL-5 melanoma = tested on: SK-MEL-5 melanoma
CAKI-1 renal = tested on: CAKI-1 renal
HCC-2998 colon = tested on: HCC-2998 colon
KM12 colon = tested on: KM12 colon
T-47D breast = tested on: T-47D breast
LOX IMVI melanoma = tested on: LOX IMVI melanoma
NCI-H226 lung = tested on: NCI-H226 lung
HL-60(TB) leukemia = tested on: HL-60(TB) leukemia
OVCAR-4 ovarian = tested on: OVCAR-4 ovarian
K-562 leukemia = tested on: K-562 leukemia
BT-549 breast = tested on: BT-549 breast
HOP-62 NSCLC = tested on: HOP-62 NSCLC
SK-MEL-2 melanoma = tested on: SK-MEL-2 melanoma
MDA-MB-231 breast = tested on: MDA-MB-231 breast
SNB-75 CNS = tested on: SNB-75 CNS
COLO 205 colon = tested on: COLO 205 colon
ACHN renal = tested on: ACHN renal
SK-MEL-28 melanoma = tested on: SK-MEL-28 melanoma
SR leukemia = tested on: SR leukemia
CCRF-CEM leukemia = tested on: CCRF-CEM leukemia
NCI-H460 lung = tested on: NCI-H460 lung
RXF 393 renal = tested on: RXF 393 renal
HOP-92 NSCLC = tested on: HOP-92 NSCLC
DU-145 prostate = tested on: DU-145 prostate
SF-295 CNS = tested on: SF-295 CNS
UO-31 renal = tested on: UO-31 renal
SNB-19 CNS = tested on: SNB-19 CNS
SN12C renal = tested on: SN12C renal
RPMI-8226 leukemia = tested on: RPMI-8226 leukemia
NCI-H23 lung = tested on: NCI-H23 lung
PC-3 prostate = tested on: PC-3 prostate
MOLT-4 leukemia = tested on: MOLT-4 leukemia
HT29 colon = tested on: HT29 colon
SF-539 CNS = tested on: SF-539 CNS
MCF7 breast = tested on: MCF7 breast
OVCAR-3 ovarian = tested on: OVCAR-3 ovarian
MDA-MB-435 = tested on: MDA-MB-435
SF-268 CNS = tested on: SF-268 CNS
SK-OV-3 ovarian = tested on: SK-OV-3 ovarian
UACC-62 melanoma = tested on: UACC-62 melanoma
HCT-116 colon = tested on: HCT-116 colon
TK-10 renal = tested on: TK-10 renal
SW-620 colon = tested on: SW-620 colon
UACC-257 melanoma = tested on: UACC-257 melanoma
OVCAR-5 ovarian = tested on: OVCAR-5 ovarian
U251 CNS = tested on: U251 CNS
NCI-H522 lung = tested on: NCI-H522 lung
HCT-15 colon = tested on: HCT-15 colon
IGROV1 ovarian = tested on: IGROV1 ovarian

`O=[N+]([O-])c1cccc(-c2ncc(-c3ccc(Cl)cc3Cl)[nH]2)c1` showed a GI50 (OVCAR-8 ovarian) of 22.4 µM, a TGI (OVCAR-8 ovarian) of 53.3 µM and a GI50 (786-0 renal) of 5.16 µM. For the same compound, the TGI (786-0 renal) was 11 µM, the GI50 (EKVX NSCLC) was 2.15 µM and the TGI (EKVX NSCLC) was 6.81 µM. It also gave a GI50 (A549 NSCLC) of 22 µM, a TGI (A549 NSCLC) greater than 56.9 µM and a GI50 (A498 renal) of 6.12 µM. It also gave a TGI (A498 renal) of 22.6 µM, a GI50 (M14 melanoma) of 8.35 µM and a TGI (M14 melanoma) of 26.9 µM. The GI50 (NCI/ADR-RES ovarian) was 11.6 µM, the TGI (NCI/ADR-RES ovarian) was greater than 83.3 µM and the GI50 (MALME-3M melanoma) was 3.69 µM. It also gave a TGI (MALME-3M melanoma) of 8.84 µM, a GI50 (HS 578T breast) of 3.89 µM and a TGI (HS 578T breast) greater than 49.5 µM. For the same compound, the GI50 (SK-MEL-5 melanoma) was 4.59 µM, the TGI (SK-MEL-5 melanoma) was 9.23 µM and the GI50 (CAKI-1 renal) was 1.82 µM. It also gave a TGI (CAKI-1 renal) of 4.71 µM, a GI50 (HCC-2998 colon) of 7.36 µM and a TGI (HCC-2998 colon) of 16.4 µM. For the same compound, the GI50 (KM12 colon) was 1.75 µM, the TGI (KM12 colon) was 3.41 µM and the GI50 (T-47D breast) was 6.88 µM. The TGI (T-47D breast) was 28.5 µM, the GI50 (LOX IMVI melanoma) was 3.35 µM and the TGI (LOX IMVI melanoma) was 8.55 µM. It also gave a GI50 (NCI-H226 lung) of 8.03 µM, a TGI (NCI-H226 lung) of 21.6 µM and a GI50 (HL-60(TB) leukemia) of 3.8 µM. It also gave a TGI (HL-60(TB) leukemia) of 17.3 µM, a GI50 (OVCAR-4 ovarian) of 3.18 µM and a TGI (OVCAR-4 ovarian) of 12.1 µM. For the same compound, the GI50 (K-562 leukemia) was 2.1 µM, the TGI (K-562 leukemia) was greater than 19.7 µM and the GI50 (BT-549 breast) was 3.05 µM. It also gave a TGI (BT-549 breast) of 8.07 µM, a GI50 (HOP-62 NSCLC) of 9.53 µM and a TGI (HOP-62 NSCLC) of 26.8 µM. It also gave a GI50 (SK-MEL-2 melanoma) of 16.2 µM, a TGI (SK-MEL-2 melanoma) of 41.3 µM and a GI50 (MDA-MB-231 breast) of 11.7 µM. For the same compound, the TGI (MDA-MB-231 breast) was 30.9 µM, the GI50 (SNB-75 CNS) was 8 µM and the TGI (SNB-75 CNS) was 36.9 µM. It also gave a GI50 (COLO 205 colon) of 3.45 µM, a TGI (COLO 205 colon) of 11.4 µM and a GI50 (ACHN renal) of 7.48 µM. For the same compound, the TGI (ACHN renal) was 18.3 µM, the GI50 (SK-MEL-28 melanoma) was 1.79 µM and the TGI (SK-MEL-28 melanoma) was 3.72 µM. For the same compound, the GI50 (SR leukemia) was 0.471 µM, the TGI (SR leukemia) was 2.44 µM and the GI50 (CCRF-CEM leukemia) was 1.49 µM. For the same compound, the TGI (CCRF-CEM leukemia) was 4.48 µM, the GI50 (NCI-H460 lung) was 7.26 µM and the TGI (NCI-H460 lung) was 30.2 µM. It also gave a GI50 (RXF 393 renal) of 2.25 µM, a TGI (RXF 393 renal) of 6 µM and a TGI (HOP-92 NSCLC) of 35.4 µM. The GI50 (DU-145 prostate) was 4.46 µM, the TGI (DU-145 prostate) was 10.5 µM and the GI50 (SF-295 CNS) was 2.14 µM. It also gave a TGI (SF-295 CNS) of 5.28 µM, a GI50 (UO-31 renal) of 5.18 µM and a TGI (UO-31 renal) of 15.3 µM. It also gave a GI50 (SNB-19 CNS) of 7.85 µM, a TGI (SNB-19 CNS) of 23.2 µM and a GI50 (SN12C renal) of 6.01 µM. It also gave a TGI (SN12C renal) of 12.6 µM, a GI50 (RPMI-8226 leukemia) of 1.08 µM and a TGI (RPMI-8226 leukemia) of 4.68 µM. It also gave a GI50 (NCI-H23 lung) of 10.6 µM, a TGI (NCI-H23 lung) of 43.7 µM and a GI50 (PC-3 prostate) of 3.69 µM. It also gave a TGI (PC-3 prostate) of 14.9 µM, a GI50 (MOLT-4 leukemia) of 2.49 µM and a TGI (MOLT-4 leukemia) of 6.34 µM. For the same compound, the GI50 (HT29 colon) was 1.88 µM, the TGI (HT29 colon) was 4.79 µM and the GI50 (SF-539 CNS) was 15.4 µM. It also gave a TGI (SF-539 CNS) of 29.3 µM, a GI50 (MCF7 breast) of 1.14 µM and a TGI (MCF7 breast) of 3.57 µM. For the same compound, the GI50 (OVCAR-3 ovarian) was 2.44 µM, the TGI (OVCAR-3 ovarian) was 5.93 µM and the GI50 (MDA-MB-435) was 3.62 µM. For the same compound, the TGI (MDA-MB-435) was 12.2 µM, the GI50 (SF-268 CNS) was 2.92 µM and the TGI (SF-268 CNS) was 9.57 µM. The GI50 (SK-OV-3 ovarian) was 22.7 µM, the TGI (SK-OV-3 ovarian) was greater than 70 µM and the GI50 (UACC-62 melanoma) was 7.63 µM. It also gave a TGI (UACC-62 melanoma) of 20.6 µM, a GI50 (HCT-116 colon) of 2.21 µM and a TGI (HCT-116 colon) of 5.95 µM. It also gave a GI50 (TK-10 renal) of 3.3 µM, a TGI (TK-10 renal) of 13.1 µM and a GI50 (SW-620 colon) of 1.6 µM. The TGI (SW-620 colon) was 3.16 µM, the GI50 (UACC-257 melanoma) was 9.7 µM and the TGI (UACC-257 melanoma) was 29 µM. It also gave a GI50 (OVCAR-5 ovarian) of 8.07 µM, a TGI (OVCAR-5 ovarian) of 23.1 µM and a GI50 (U251 CNS) of 2.67 µM. It also gave a TGI (U251 CNS) of 6.96 µM, a GI50 (NCI-H522 lung) of 10.3 µM and a TGI (NCI-H522 lung) greater than 27.2 µM. It also gave a GI50 (HCT-15 colon) of 2.39 µM, a TGI (HCT-15 colon) of 6.82 µM and a GI50 (IGROV1 ovarian) of 6.65 µM. The TGI (IGROV1 ovarian) was 13.5 µM.
In the case of `CCc1nc(N)nc(N)c1-c1ccc([N+](=O)[O-])c(Cl)c1`, the TGI (OVCAR-8 ovarian) is reported as greater than 100 µM, the TGI (786-0 renal) is reported as greater than 100 µM and the TGI (EKVX NSCLC) is reported as greater than 100 µM. It also gave a TGI (A549 NSCLC) greater than 80.8 µM, a TGI (A498 renal) greater than 100 µM and a TGI (M14 melanoma) greater than 100 µM. It also gave a TGI (NCI/ADR-RES ovarian) greater than 100 µM, a TGI (MALME-3M melanoma) greater than 100 µM and a TGI (HS 578T breast) greater than 100 µM. The TGI (SK-MEL-5 melanoma) was greater than 82.5 µM, the TGI (CAKI-1 renal) was greater than 100 µM and the TGI (HCC-2998 colon) was greater than 100 µM. For the same compound, the TGI (KM12 colon) was greater than 100 µM, the TGI (T-47D breast) was greater than 100 µM and the TGI (LOX IMVI melanoma) was greater than 100 µM. The TGI (NCI-H226 lung) was greater than 100 µM, the TGI (HL-60(TB) leukemia) was greater than 100 µM and the TGI (OVCAR-4 ovarian) was greater than 100 µM. It also gave a TGI (K-562 leukemia) greater than 100 µM, a TGI (BT-549 breast) greater than 100 µM and a TGI (HOP-62 NSCLC) greater than 100 µM. For the same compound, the TGI (SK-MEL-2 melanoma) was greater than 100 µM, the TGI (MDA-MB-231 breast) was greater than 100 µM and the TGI (SNB-75 CNS) was greater than 92.5 µM. It also gave a TGI (COLO 205 colon) greater than 100 µM, a TGI (ACHN renal) greater than 100 µM and a TGI (SK-MEL-28 melanoma) greater than 100 µM. It also gave a TGI (SR leukemia) greater than 100 µM, a TGI (CCRF-CEM leukemia) greater than 100 µM and a TGI (NCI-H460 lung) greater than 100 µM. For the same compound, the TGI (RXF 393 renal) was greater than 100 µM, the TGI (HOP-92 NSCLC) was greater than 100 µM and the TGI (DU-145 prostate) was greater than 100 µM. The TGI (SF-295 CNS) was greater than 100 µM, the TGI (UO-31 renal) was greater than 100 µM and the TGI (SNB-19 CNS) was greater than 100 µM. For the same compound, the TGI (SN12C renal) was greater than 100 µM, the TGI (RPMI-8226 leukemia) was greater than 100 µM and the TGI (NCI-H23 lung) was greater than 100 µM. For the same compound, the TGI (PC-3 prostate) was greater than 100 µM, the TGI (MOLT-4 leukemia) was greater than 100 µM and the TGI (HT29 colon) was greater than 100 µM. For the same compound, the TGI (SF-539 CNS) was greater than 94.4 µM, the TGI (MCF7 breast) was greater than 100 µM and the TGI (OVCAR-3 ovarian) was greater than 100 µM. The TGI (MDA-MB-435) was greater than 100 µM, the TGI (SF-268 CNS) was greater than 100 µM and the TGI (SK-OV-3 ovarian) was greater than 100 µM. For the same compound, the TGI (UACC-62 melanoma) was greater than 100 µM, the TGI (HCT-116 colon) was greater than 100 µM and the TGI (TK-10 renal) was greater than 100 µM. The TGI (SW-620 colon) was greater than 100 µM, the TGI (UACC-257 melanoma) was greater than 100 µM and the TGI (OVCAR-5 ovarian) was greater than 100 µM. The TGI (U251 CNS) was greater than 100 µM, the TGI (NCI-H522 lung) was greater than 52.9 µM and the TGI (HCT-15 colon) was greater than 100 µM. For the same compound, the TGI (IGROV1 ovarian) was greater than 100 µM.
